# Test results from ChEMBL document CHEMBL3769390, “Inhibitors of the Antiapoptotic Myeloid Cell Leukemia-1 (Mcl-1) May Provide Effective Treatment for Cancer” (ACS Med Chem Lett, 2015).
# Key:
# [1] = target: T1, Induced myeloid leukemia cell differentiation protein Mcl-1 (Homo sapiens, UniProt Q07820); experiment: Inhibition of recombinant Mcl-1 (residues 172-327) (unknown origin) using FITC-AHx-EARIAQELRRIGDEFNETYTR-NH2 as substrate after 90 mins by fluorescence polarization anisotropy competition assay
# T1 sequence (Q07820 whole entry, the tested form may be a part): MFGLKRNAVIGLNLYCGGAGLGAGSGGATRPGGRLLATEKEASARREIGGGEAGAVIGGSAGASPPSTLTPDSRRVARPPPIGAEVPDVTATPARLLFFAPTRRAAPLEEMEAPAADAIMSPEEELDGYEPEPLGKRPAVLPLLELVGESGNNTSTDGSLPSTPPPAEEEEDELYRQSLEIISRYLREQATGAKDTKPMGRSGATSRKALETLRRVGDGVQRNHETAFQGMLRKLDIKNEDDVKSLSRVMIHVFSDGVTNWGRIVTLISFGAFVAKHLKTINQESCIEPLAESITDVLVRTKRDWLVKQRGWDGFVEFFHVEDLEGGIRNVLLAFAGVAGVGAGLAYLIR
# K562 = experiment: Antiproliferative activity against human K562 cells after 72 hrs by Cell TiterGlo assay; format: functional, cell-based; details: K562, 72 h
# [2] = Antiproliferative activity against human ALMC2 cells after 72 hrs by Cell TiterGlo assay; format: functional, cell-based; details: ALMC2, 72 h
# [3] = Antiproliferative activity against human ALMC1 cells after 72 hrs by Cell TiterGlo assay; format: functional, cell-based; details: ALMC1, 72 h
# [4] = Antiproliferative activity against human NCI-H929 cells after 72 hrs by Cell TiterGlo assay; format: functional, cell-based; details: NCI-H929, 72 h
# [5] = Inhibition of Bcl-2 (residues i_207 A96T/G110R, delta 35-91, replaced with Bcl-xL35-50) (unknown origin) using FITC-AHx-GQVGRQLAIIGDDINR-NH2 as substrate after 90 mins by fluorescence polarization anisotropy competition assay; set-up: species or system Homo sapiens
# [6] = Inhibition of Bcl-xL (residues 1-209, loop 45 to 86 deleted) (unknown origin) using FITC-AHx-GQVGRQLAIIGDDINR-NH2 as substrate after 90 mins by fluorescence polarization anisotropy competition assay; set-up: species or system Homo sapiens
# [7] = Antiproliferative activity against human OPM2 cells after 72 hrs by Cell TiterGlo assay; format: functional, cell-based; details: OPM-2, 72 h
# [8] = target: T1, Induced myeloid leukemia cell differentiation protein Mcl-1; experiment: Inhibition of recombinant Mcl-1 (residues 172-327) (unknown origin) using FITC-AHx-GQVGRQLAIIGDDINR-NH2 as substrate after 90 mins by fluorescence polarization anisotropy competition assay
Compound,Ki [1],IC50 (K562),Ki [5],Ki [6],Ki [8],IC50 [2],IC50 [3],IC50 [4],IC50 [7]
Cc1cc(OCCCc2c(C(=O)NC(C)(C)C)[nH]c3ccccc23)cc(C)c1Cl,1000 nM,–,–,–,–,–,–,–,–
Cc1cc(OCCCc2c(C(=O)NCc3cc(C(=O)O)n(C)c3)[nH]c3c(-c4c(C)nn(C)c4C)cccc23)cc(C)c1Cl,< 50 nM,–,> 100 µM,3540 nM,–,–,–,–,–
Cc1cc(OCCCc2c(C(=O)Nc3ccc(C#N)cc3)[nH]c3c(-c4c(C)nn(C)c4C)c(Cl)ccc23)cc(C)c1Cl,51 nM,–,–,–,–,–,–,–,–
Cc1cc(OCCCc2c(C(=O)NCc3cc(C(=O)O)ccn3)[nH]c3c(-c4c(C)nn(C)c4C)cccc23)cc(C)c1Cl,–,–,27 µM,7900 nM,–,–,–,–,–

# Further lines, with some results ahead:
Ki [1],IC50 (K562),Ki [5],Ki [6],Ki [8],Compound,IC50 [2],IC50 [3],IC50 [4],IC50 [7]
< 50 nM,40 µM,6.44 µM,2200 nM,< 7 nM,Cc1cc(OCCCc2c3n(c4c(-c5c(C)nn(C)c5C)cccc24)CCN(Cc2cccc(C(=O)O)c2)C3=O)cc(C)c1Cl,33.9 µM,13.1 µM,15 µM,16.3 µM
–,23.2 µM,–,1900 nM,–,Cc1cc(OCCCc2c3n(c4c(-c5c(C)nn(C)c5C)c(Cl)ccc24)CCCN(c2cccc(C(=O)O)c2)C3=O)cc(C)c1Cl,20.8 µM,12 µM,6.3 µM,–
